Target: T1, Recombinant human mPGES-1 (Homo sapiens, UniProt O14684)
T1 sequence (O14684 1-152): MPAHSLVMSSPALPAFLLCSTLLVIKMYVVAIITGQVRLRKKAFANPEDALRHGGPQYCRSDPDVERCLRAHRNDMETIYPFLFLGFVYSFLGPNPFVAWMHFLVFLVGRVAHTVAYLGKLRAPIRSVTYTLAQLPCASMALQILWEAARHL
Assay: In-vitro mPGES-1 enzyme inhibition assay (PGE2 formation from PGH2, HTRF detection)
Format: biochemical
Conditions: for inhibition at 1 µM: 1 μM test compound, read-out: Percentage inhibition at 1 μM; for inhibition at 1 µM / inhibition at 10 µM: recombinant human mPGES-1 microsomal fraction; for inhibition at 10 µM: 10 μM test compound, read-out: Percentage inhibition at 10 μM; for IC50: class symbols, selected examples
Excerpt: In-Vitro Protocol for Screening of mPGES-1 Inhibitors: mPGES-1 (microsomal prostaglandin E synthase-1) is a microsomal enzyme that converts endoperoxide substrate PGH2 (prostaglandin H2) to product PGE2 (prostaglandin E2) by isomerization in the presence of reduced glutathione (GSH). mPGES-1 inhibitors were screened by assessing their ability to inhibit formation of PGE2 from PGH2 in presence of mPGES-1 using anti-PGE2 antibody based detection method. […] Assay was set up using crude microsomal fractions at protein concentration of 40-60 μg/mL. […] Final concentration of DMSO in reaction was 0.5% (v/v). Negative controls comprised of all assay reagents except the enzyme. Positive controls comprised of enzyme reaction in the absence of any inhibitor. […] Reaction was stopped by addition of Stannous chloride (11 mg/ml) and PGE2 levels were measured ([…] et al. […] Inhibition of mPGES-1 enzyme activity was measured using percent of reaction occurring in the positive control. Concentration response curves were plotted using percent inhibition of maximum enzyme reaction. IC50 value was calculated from concentration response curve by nonlinear regression analysis using GraphPad PRISM software.

Compound | inhibition at 1 µM [%] | inhibition at 10 µM [%] | IC50 [nM]
CC1(C)Cc2c(c(C(=O)Nc3ccccc3Br)cc3nc(Nc4c(Cl)cccc4Cl)[nH]c23)O1 [Example-72, N-(2-Bromophenyl)-2-[(2,6-dichlorophenyl)amino]-7,7-dimethyl-7,8-dihydro-1H-furo[3,2-e]benzimidazole-5-carboxamide] | 93.2 | 93.7 | < 50
CC1(C)Cc2c(c(C(=O)NCC(F)(F)C(F)(F)F)cc3nc(Nc4ccc(F)cc4Cl)[nH]c23)O1 [Example-94, 2-[(2-Chloro-4-fluorophenyl)amino]-7,7-dimethyl-N-(2,2,3,3,3-pentafluoropropyl)-7,8-dihydro-1H-furo[3,2-e]benzimidazole-5-carboxamide] | 66 | 76.4 | –
CC1(C)Cc2c(c(C(=O)Nc3ccc(Cl)cc3)cc3nc(Nc4ccccc4Cl)[nH]c23)O1 [Example-18, N-(4-Chlorophenyl)-2-[(2-chlorophenyl)amino]-7,7-dimethyl-7,8-dihydro-1H-furo[3,2-e]benzimidazole-5-carboxamide] | 98.4 | 99.8 | < 50
Cc1cc2c(o1)c(C(=O)NCC1CC1)cc1nc(Nc3c(Cl)cccc3Cl)[nH]c12 [Example-57, N-(Cyclopropylmethyl)-2-[(2,6-dichlorophenyl)amino]-7-methyl-1H-furo[3,2-e]benzimidazole-5-carboxamide] | 61.7 | 88.2 | –
CC(O)CNC(=O)c1cc2nc(Nc3c(Cl)cccc3Cl)[nH]c2c2c1OC(C)(C)C2 (centres unmarked) [Example-43, 2-[(2,6-Dichlorophenyl)amino]-N-(2-hydroxypropyl)-7,7-dimethyl-7,8-dihydro-1H-furo[3,2-e]benzimidazole-5-carboxamide] | 43.8 | 72.3 | < 50
CC1(C)Cc2c(c(C(=O)Nc3ccc(F)cc3C#N)cc3nc(Nc4c(F)cccc4Cl)[nH]c23)O1 [Example-105, 2-[(2-Chloro-6-fluorophenyl)amino]-N-(2-cyano-4-fluorophenyl)-7,7-dimethyl-7,8-dihydro-1H-furo[3,2-e]benzimidazole-5-carboxamide] | 91.2 | 95.5 | > 100

Results, then the molecule that gave them:

inhibition at 1 µM [%] | inhibition at 10 µM [%] | IC50 [nM] | Compound
96.3 | 97.3 | – | Cn1c(Nc2c(Cl)cncc2Cl)nc2cc(C(=O)Nc3ccc(F)c(C(F)(F)F)c3)c3c(c21)CC(C)(C)O3 [Example-213, 2-((3,5-Dichloropyridin-4-yl)amino)-N-(4-fluoro-3-(trifluoromethyl)phenyl)-1,7,7-trimethyl-7,8-dihydro-1H-benzofuro[4,5-d]imidazole-5-carboxamide]
100 | 99.9 | < 50 | Cn1c(Nc2c(F)cccc2Cl)nc2cc(C(=O)Nc3ccc(C(F)(F)F)nc3)c3c(c21)CC(C)(C)O3 [Example-153, 2-((2-Chloro-6-fluorophenyl)amino)-1,7,7-trimethyl-N-(6-(trifluoromethyl)pyridin-3-yl)-7,8-dihydro-1H-benzofuro[4,5-d]imidazole-5-carboxamide]
96.2 | 99.9 | – | Cn1c(Nc2c(Cl)cncc2Cl)nc2cc(C(=O)Nc3cc(C4CC4)ccc3F)c3c(c21)CC(C)(C)O3 [Example-217, N-(5-Cyclopropyl-2-fluorophenyl)-2-((3,5-dichloropyridin-4-yl)amino)-1,7,7-trimethyl-7,8-dihydro-1H-benzofuro[4,5-d]imidazole-5-carboxamide]
100 | 100 | < 50 | CC1(C)Cc2c(c(C(=O)Nc3ccc(OC(F)F)nc3)cc3nc(Nc4c(F)cccc4Cl)[nH]c23)O1 [Example-115, 2-[(2-Chloro-6-fluorophenyl)amino]-N-[6-(difluoromethoxy)pyridin-3-yl]-7,7-dimethyl-7,8-dihydro-1H-furo[3,2-e]benzimidazole-5-carboxamide]
